# Test results from ChEMBL document CHEMBL1201862, “PubChem BioAssay data set” (2004).
#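 Values below derive from 48-hour exposures of cells grown in 96-well plates, with endpoints linearly interpolated between the two concentrations bracketing the appropriate inhibition level. At the GI50, growth is halved.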 Activity calls are given as the source filed them. No stated cut-off is given here; in the data, active = GI50 up to about 1.1 µM and inactive = higher.
# Tests used:
# Assay in all cases: NCI tumour cell line growth inhibition, 48 h
# [1] = system: IGROV-1
# [2] = system: SN12C
# [3] = system: UACC-62
# [4] = system: SK-MEL-28
# [5] = system: SK-OV-3
# [6] = system: PC-3
# [7] = system: K562
# [8] = system: LOX IMVI
# [9] = system: M14
# [10] = system: HCC 2998
# [11] = system: HT-29
# [12] = system: NCI-H226
# [13] = system: COLO 205
# [14] = system: NCI-H23
# [15] = system: OVCAR-8
# [16] = system: HCT-116
# [17] = system: RXF 393
# [18] = system: SW-620
# [19] = system: NCI-H460
# [20] = system: EKVX
SMILES,GI50 [1],GI50 [2],GI50 [3],GI50 [4],GI50 [5],GI50 [6],GI50 [7],GI50 [8],GI50 [9],GI50 [10],GI50 [11],GI50 [12],GI50 [13],GI50 [14],GI50 [15],GI50 [16],GI50 [17],GI50 [18],GI50 [19],GI50 [20]
COc1ccc(CC2C(=O)NC(C)C(=O)N(C)C3C(=O)N(C)C(Cc4ccc(O)c(c4)Oc4ccc(cc4)C3O)C(=O)NC(C)C(=O)NC(C)C(=O)N2C)cc1 (stereo not given),0.0162 µM (active),0.018 µM (active),0.0138 µM (active),0.00223 µM (active),0.0236 µM (active),0.01 µM (active),0.0179 µM (active),0.00225 µM (active),0.0275 µM (active),0.0391 µM (active),0.0178 µM (active),0.00459 µM (active),0.0206 µM (active),0.016 µM (active),0.021 µM (active),0.00181 µM (active),0.0396 µM (active),0.0181 µM (active),0.0167 µM (active),0.0261 µM (active)
CCCCCCCCCCCCCCCCCCNc1ccn(C2OC(COP(=O)(O)OCC3OC(n4cc(C)c(=O)[nH]c4=O)CC3F)C(O)C2O)c(=O)n1 (stereo not given),5.78 µM (inactive),7.87 µM (inactive),6.24 µM (inactive),8.87 µM (inactive),8.63 µM (inactive),1.61 µM (inactive),8.55 µM (inactive),7.59 µM (inactive),8.17 µM (inactive),5.7 µM (inactive),7.69 µM (inactive),37.8 µM (inactive),3.34 µM (inactive),8.65 µM (inactive),8.51 µM (inactive),10.2 µM (inactive),1.67 µM (inactive),5.86 µM (inactive),7.41 µM (inactive),10.3 µM (inactive)
Clc1ccc(C2=Cc3nc2c(-c2ccccc2)c2ccc([nH]2)c(-c2ccccc2)c2nc(c(-c4ccccc4)c4ccc([nH]4)c3-c3ccccc3)C=C2)cc1,> 62.5 µM (inactive),> 62.5 µM (inactive),> 62.5 µM (inactive),> 62.5 µM (inactive),> 62.5 µM (inactive),> 62.5 µM (inactive),> 62.5 µM (inactive),> 62.5 µM (inactive),> 62.5 µM (inactive),> 62.5 µM (inactive),> 62.5 µM (inactive),> 62.5 µM (inactive),> 62.5 µM (inactive),> 62.5 µM (inactive),> 62.5 µM (inactive),> 62.5 µM (inactive),> 62.5 µM (inactive),> 62.5 µM (inactive),> 62.5 µM (inactive),> 62.5 µM (inactive)
NC1N=C(c2ccc(Cl)cc2)C2=C(N1)c1ccccc1CC2 (stereo not given),5.68 µM (inactive),19.9 µM (inactive),15 µM (inactive),64.7 µM (inactive),> 100 µM (inactive),23.1 µM (inactive),3.48 µM (inactive),4.13 µM (inactive),19.9 µM (inactive),0.156 µM (active),3.16 µM (inactive),14.4 µM (inactive),33.9 µM (inactive),30 µM (inactive),25.6 µM (inactive),8.39 µM (inactive),7.96 µM (inactive),10.8 µM (inactive),8.51 µM (inactive),14.2 µM (inactive)
C=C1[C@@H](C)[C@H]2[C@H](Cc3ccccc3)NC(=O)[C@]23OC(=O)/C=C/[C@H](O)CCC[C@@H](C)C/C=C/[C@H]3[C@@H]1O,6.59 µM (inactive),3.87 µM (inactive),22.8 µM (inactive),12.8 µM (inactive),32.6 µM (inactive),3.76 µM (inactive),9.18 µM (inactive),0.486 µM (active),> 100 µM (inactive),50 µM (inactive),5.82 µM (inactive),1.18 µM (inactive),0.713 µM (active),7 µM (inactive),5.43 µM (inactive),8.41 µM (inactive),0.94 µM (active),23.2 µM (inactive),2.62 µM (inactive),10.7 µM (inactive)
